Laboratory results as given in US20070004653A1, “Stable lyophilized anthracycline glycosides” (priority 2005, published 2007).

Tests used:
[1] = Purification of Epirubicin HCl: solution warmed to 60° C., dimer and aglycone; assay type: physicochemical; conditions: for dimer content / epirubicin aglycone: cooled to 50-60° C.
Procedure: Epirubicin hydrochloride (1550 mg) (containing epirubicin aglycone 0.04% and dimer 0.8%) was dissolved in water (100 ml) and the pH was corrected to 3.2-3.8 with hydrochloric acid at room temperature. The solution was then warmed in about ½ hour to 60° C.-65° C. and then maintained at tis temperature for 1 hour and then the solution was cooled to 50-60° C. At the same time, the pH was corrected to 4.5-5.0 with sodium hydroxide (at this point epirubicin aglycone was about 0,10% and dimer content<0,10%). Then the solution was quickly transferred to a cold container.
Epirubicin hydrochloride (1550 mg) (containing epirubicin aglycone 0.04% and dimer 0.8%) was dissolved in water (100 ml) and the pH corrected to 3.2-3.8 with hydrochloric acid at room temperature (by means of 30 microliters of a 1 M aqueous solution). The solution was quickly warmed (in less than ½ hour) to 60° C.-65° C. and then maintained at this temperature for 45 minutes and then the solution was cooled to 50-60° C. At the same time, the pH was corrected to 4.5-5.0 with AMBERLITE® IRA-67 free base (0,18 ml of resin 1,6M) (at this point epirubicin aglycone was about 0,09% and dimer content<0,10%). Then the solution was quickly filtered and then transferred into a cold container.

[2] = Preparation of stable lyophilized anthracycline glycoside hydrochlorides: aglycone and dimer in the lyophilized product; assay type: physicochemical
Procedure: Idarubicin hydrochloride (500 mg) was dissolved in water (50 ml) and acetic acid and ammonium acetate (both 1.5% molar amount with respect to the molar amount of idarubicin hydrochloride) were added. The solution was frozen and lyophilized.
Idarubicin hydrochloride (500 mg) was dissolved in water (50 ml) and acetic acid and ammonium acetate (both 1.5% molar amount with respect to the molar amount of idarubicin hydrochloride) were added. Charcoal was then added (100 g) and the solution was stirred for two hours. After that, the suspension was filtered through 0.4 micron membrane and then the solution was frozen and lyophilized.
Doxorubicin hydrochloride (500 mg) was dissolved in water (20 ml) and the pH corrected to 3.5 with acetic acid at room temperature. The solution was then warmed to 60° C. for 2 hours and then ammonium acetate (1.5% molar amount with respect to the molar amount of doxorubicin hydrochloride) was added. Then the solution was quickly frozen and lyophilized.
Epirubicin hydrochloride (1550 mg) was dissolved in water (100 ml) and the pH corrected to 3.2-3.8 with hydrochloric acid at room temperature. The solution was then warmed to 60° C.-65° C. for 1 hours and then the solution was cooled to 50-60° C. At the same time, the pH was corrected to 4.5-5.0 with sodium hydroxide. Then the solution was quickly frozen and lyophilized.
Idarubicin hydrochloride (5.0 g) was dissolved in water (500 ml). Then 58 microlitres of AMBERLITE® IRA-67 (1.6M) acetate (meaning 1.0% molar amount with respect to the molar amount of idarubicin hydrochloride) and 4.5 mg of acetic acid (meaning 0.8% molar amount with respect to the molar amount of idarubicin hydrochloride) were added. The suspension was slurried for two hours, then filtered, frozen and lyophilized.
Doxorubicin hydrochloride (5.0 g) was dissolved in water (200 ml) and the pH corrected to 4.6-4.8 with IN hydrochloric acid at room temperature. Then 80 microlitres of AMBERLITE® IRA-67 (1.6M) acetate (meaning 1.5% molar amount with respect to the molar amount of doxorubicin hydrochloride) was added. The solution was then filtered, frozen and lyophilized.
Epirubicin hydrochloride (1550 mg) was dissolved in water (100 ml) and the pH corrected to 3.2-3.8 with hydrochloric acid at room temperature. The solution was warmed to 60° C.-65° C. for 1 hour and then the solution was cooled to 50-60° C. At the same time, the pH was corrected to 4.5-5.0 with AMBERLITE® IRA-67 free base. Then the solution was quickly filtered, frozen, and lyophilized.

[3] = cited from earlier work
[4] = cited from earlier work; remark: listed apart in the source
[5] = Example 36: 1550 mg in water (100 ml), t = 0, pH 3.6, 20° C.
[6] = Example 36: after 1 hour at 60° C.-65° C., pH corrected to 4.5-5.0 with sodium hydroxide
[7] = Example 36: final, pH 4.8 (sodium hydroxide), 10° C.
[8] = Example 37: 1550 mg in water (100 ml), t = 0, pH 3.6, 20° C.
[9] = Example 37: Final, pH 4.7 (AMBERLITE IRA-67 free base), 10° C.
[10] = Example 37: after 45 minutes at 60° C.-65° C., pH corrected to 4.5-5.0 with AMBERLITE IRA-67 free base
[11] = starting Epirubicin hydrochloride (1550 mg) before dissolving
[12] = Example 41: pH 3.2-3.8, 60° C.-65° C. for 1 hour, pH 4.5-5.0 with sodium hydroxide, frozen and lyophilized
[13] = Example 44: pH 3.2-3.8, 60° C.-65° C. for 1 hour, pH 4.5-5.0 with AMBERLITE IRA-67 free base, filtered, frozen, lyophilized

COc1cccc2c1C(=O)c1c(O)c3c(c(O)c1C2=O)C[C@@](O)(C(=O)CO)C[C@@H]3O[C@H]1CC(N)[C@@H](O)C(C)O1.Cl (stereo in doubt) [Epirubicin HCl, epirubicin hydrochloride]
% aglycone [1, 5]: 0.04%
% dimer content [1, 5]: 0.80%
% aglycone ([1]; Example 36: 15 min, 60° C.): 0.06%
% dimer content ([1]; Example 36: 15 min, 60° C.): 0.38%
% aglycone ([1]; Example 36: 30 min, 60° C.): 0.07%
% dimer content ([1]; Example 36: 30 min, 60° C.): 0.18%
% aglycone ([1]; Example 36: 45 min, 60° C.): 0.09%
% dimer content ([1]; Example 36: 45 min, 60° C.): 0.11%
% aglycone ([1]; Example 36: 60 min, 60° C.): 0.11%
% dimer content ([1]; Example 36: 60 min, 60° C.): 0.08%
% aglycone ([1]; Example 36: T = 0, 60° C.): 0.04%
% dimer content ([1]; Example 36: T = 0, 60° C.): 0.74%
dimer content [1, 6]: < 0,10%
epirubicin aglycone [1, 6]: about 0,10%
% aglycone [1, 7]: 0.11%
% dimer content [1, 7]: 0.08%
% aglycone [1, 8]: 0.04%
% dimer content [1, 8]: 0.80%
% aglycone ([1]; Example 37: 10 min, 60° C.): 0.05%
% dimer content ([1]; Example 37: 10 min, 60° C.): 0.38%
% aglycone ([1]; Example 37: 20 min, 60° C.): 0.07%
% dimer content ([1]; Example 37: 20 min, 60° C.): 0.18%
% aglycone ([1]; Example 37: 30 min, 60° C.): 0.09%
% dimer content ([1]; Example 37: 30 min, 60° C.): 0.11%
% aglycone ([1]; Example 37: 40 min, 60° C.): 0.10%
% dimer content ([1]; Example 37: 40 min, 60° C.): 0.08%
% aglycone [1, 9]: 0.10%
% dimer content [1, 9]: 0.08%
% aglycone ([1]; Example 37: T = 0, 60° C.): 0.05%
% dimer content ([1]; Example 37: T = 0, 60° C.): 0.76%
dimer content [1, 10]: < 0,10%
epirubicin aglycone [1, 10]: about 0,09%
dimer contained [1, 11]: 0.8%
epirubicin aglycone contained [1, 11]: 0.04%
aglycone contained in lyophilized product [2, 12]: 0.12%
dimer contained in lyophilized product [2, 12]: 0.1%
aglycone contained in lyophilized product [2, 13]: 0.10%
dimer contained in lyophilized product [2, 13]: 0.10%
pH in a 0.5% w/v solution in water [3]: 4-5.5
pKa in water [4]: 7.7
